Data: US11485731B2, “Compounds and methods useful in the treatment of a PRMT5-mediated disorder” (ARGONAUT THERAPEUTICS LIMITED, priority 2017, dated 2022)

Target: human PRMT5/MEP50 (Homo sapiens (Human), UniProt O14744)
Experiment: PRMT5 chemiluminescent assay
Format: biochemical
Conditions: human PRMT5/MEP50 expressed in HEK293 cells; biotinylated histone peptides; Histone H4 monomethyl R3 antibody; chemiluminescent readout
Description: A PRMT5 chemiluminescent assay was used to measure the IC50 activity of PRMT5 of the compounds of Examples 1A to 7 above. Biotinylated histone peptides were synthesized and attached to 384-well plates. Compound serial dilutions were performed and added to the assay plate. Histone H4 monomethyl R3 antibody was obtained from Abcam. A master mix for each well was prepared and human PRMT5/MEP50 (expressed in HEK293 cells) diluted in assay buffer to a concentration of 5 ng/μL. The reaction was incubated and slowly rotated for 60 minutes at the point of PRMT5/MEP50 addition. The supernatant from the wells was removed and blocking buffer was added to each well and rotated for 10 minutes. The primary antibody was diluted and added to every well for 60 minutes, before it was removed and the wells washed. The horse raddish peroxidase (HRP)-coupled secondary antibody was diluted and added to each well with an incubation time of 30 minutes. The HRP chemiluminescent substrate was added to every well. The plate was read on a Flourstar Omega BMG Labtech instrument (Ortenberg, Germany) and the analysis of IC50 was performed using the Flourstar Omega BMG Labtech software.

Sequence of human PRMT5/MEP50 (O14744 whole entry): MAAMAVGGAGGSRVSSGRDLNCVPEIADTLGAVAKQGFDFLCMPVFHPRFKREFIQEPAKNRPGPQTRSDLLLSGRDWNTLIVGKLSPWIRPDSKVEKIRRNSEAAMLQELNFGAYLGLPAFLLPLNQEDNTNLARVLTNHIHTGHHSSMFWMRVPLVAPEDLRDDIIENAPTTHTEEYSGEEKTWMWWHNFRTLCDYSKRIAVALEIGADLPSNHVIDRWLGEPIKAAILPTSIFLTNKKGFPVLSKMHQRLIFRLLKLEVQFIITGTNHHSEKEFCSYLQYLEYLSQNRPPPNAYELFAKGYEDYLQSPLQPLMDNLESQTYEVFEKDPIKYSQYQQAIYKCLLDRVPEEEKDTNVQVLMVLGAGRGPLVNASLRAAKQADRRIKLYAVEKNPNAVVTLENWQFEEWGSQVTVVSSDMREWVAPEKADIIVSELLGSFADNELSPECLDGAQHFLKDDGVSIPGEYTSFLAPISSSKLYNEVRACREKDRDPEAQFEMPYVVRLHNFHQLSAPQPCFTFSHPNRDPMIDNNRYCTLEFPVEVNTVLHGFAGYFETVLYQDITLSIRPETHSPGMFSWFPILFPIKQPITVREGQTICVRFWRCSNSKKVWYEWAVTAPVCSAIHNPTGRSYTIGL
Sequence of human PRMT5/MEP50 (Q9BQA1 whole entry partner): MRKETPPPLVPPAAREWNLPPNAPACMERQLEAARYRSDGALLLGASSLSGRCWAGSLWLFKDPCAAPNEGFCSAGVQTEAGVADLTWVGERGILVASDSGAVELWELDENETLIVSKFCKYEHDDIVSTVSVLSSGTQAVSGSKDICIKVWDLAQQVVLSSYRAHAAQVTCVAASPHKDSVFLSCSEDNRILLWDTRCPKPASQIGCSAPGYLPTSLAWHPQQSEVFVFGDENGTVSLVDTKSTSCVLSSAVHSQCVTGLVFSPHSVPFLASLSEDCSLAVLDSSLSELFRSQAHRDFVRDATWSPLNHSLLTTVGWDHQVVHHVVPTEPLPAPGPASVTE

SMILES	IC50 [µM]
O=C(NCC(O)CN1CCc2sccc2C1)N1CCC(c2ccccc2)C1 (stereo not drawn) [Example 1AE, N-(3-(6,7-dihydrothieno[3,2-c]pyridin-5(4H)-yl)-2-hydroxypropyl)-3-phenylpyrrolidine-1-carboxamide]	0.072
O=C(NC[C@H](O)CN1CCc2ccccc2C1)N1CCc2ccccc2C1 [Example 1AL, (S)-N-(3-(3,4-dihydroisoquinolin-2(1H)-yl)-2-hydroxypropyl)-3,4-dihydroisoquinoline-2(1H)-carboxamide]	0.03
O=C(NC[C@H](O)CN1CCc2ccccc2C1)N1CCCC(c2ccccc2)C1 (stereo partly drawn) [Example 1AG, (S)-N-((S)-3-(3,4-dihydroisoquinolin-2(1H)-yl)-2-hydroxypropyl)-3-phenylpiperidine-1-carboxamide]	0.185
O=C(NC[C@H](O)CN1CCc2ccccc2C1)N1CCCC(N2CCCOCC2)C1 (stereo partly drawn) [Example 1CC, N-((S)-3-(3,4-dihydroisoquinolin-2(1H)-yl)-2-hydroxypropyl)-3-(1,4-oxazepan-4-yl)piperidine-1-carboxamide]	1.64
O=C(OCC(O)CN1CCc2ccccc2C1)N1CCC(c2ccccc2)C1 (stereo not drawn) [Example 3D, 2-hydroxy-3-(1,2,3,4-tetrahydroisoquinolin-2-yl)propyl 3-phenylpyrrolidine-1-carboxylate]	0.015
CC(=O)N1CCCN(C(=O)NC[C@H](O)CN2CCc3ccccc3C2)CC1 [Example 1AP, (S)-4-acetyl-N-(3-(3,4-dihydroisoquinolin-2(1H)-yl)-2-hydroxypropyl)-1,4-diazepane-1-carboxamide]	0.484
O=C(NC[C@H](O)CN1CCc2ccccc2C1)N1CCCN(C(=O)c2ccccc2)CC1 [Example 1AR, (S)-4-benzoyl-N-(3-(3,4-dihydroisoquinolin-2(1H)-yl)-2-hydroxypropyl)-1,4-diazepane-1-carboxamide]	0.658
O=C(NCC(O)CN1CCc2ccccc2C1)N1CCCC(O)C1 (stereo not drawn) [Example 1CK, N-(3-(3,4-dihydroisoquinolin-2(1H)-yl)-2-hydroxypropyl)-3-hydroxypiperidine-1-carboxamide]	0.329
O=C(NC[C@H](O)CN1CCc2ccccc2C1)N1CC[C@H](c2ccccc2)C1 [Example 1CJ, (R)-N-((S)-3-(3,4-dihydroisoquinolin-2(1H)-yl)-2-hydroxypropyl)-3-phenylpyrrolidine-1-carboxamide]	0.058
O=C(NCC(O)CN1CCc2ccccc2C1)N1CCSCC1 (stereo not drawn) [Example 1U, N-(3-(3,4-dihydroisoquinolin-2(1H)-yl)-2-hydroxypropyl)thiomorpholine-4-carboxamide]	0.896
O=C(NC[C@@H](O)CN1CCc2ccccc2C1)N1CCc2ccccc2C1 [Example 1AM, (R)-N-(3-(3,4-dihydroisoquinolin-2(1H)-yl)-2-hydroxypropyl)-3,4-dihydroisoquinoline-2(1H)-carboxamide]	1.5
O=C(NCC(O)CN1CCc2ccccc2C1)N1CCCCC1 (stereo not drawn) [Example 1L, N-[2-hydroxy-3-(1,2,3,4-tetrahydroisoquinolin-2-yl)propyl]piperidine-1-carboxamide]	1.65
CC(=O)N1CCN(C(=O)NCC(O)CN2CCc3ccccc3C2)CC1 (stereo not drawn) [Example 1B, 4-acetyl-N-[2-hydroxy-3-(1,2,3,4-tetrahydroisoquinolin-2-yl)propyl]piperazine-1-carboxamide]	9.91
O=C(NCC(O)CN1CCc2ccccc2C1)N1CCCN(c2ccccc2)CC1 (stereo not drawn) [Example 1S, N-(3-(3,4-dihydroisoquinolin-2(1H)-yl)-2-hydroxypropyl)-4-phenyl-1,4-diazepane-1-carboxamide]	0.095
O=C(NCC(O)CN1CCc2ccccc2C1)N1CCCN(Cc2ccccc2)CC1 (stereo not drawn) [Example 1T, 4-benzyl-N-(3-(3,4-dihydroisoquinolin-2(1H)-yl)-2-hydroxypropyl)-1,4-diazepane-1-carboxamide]	0.04
O=C(NC[C@H](O)CN1CCc2ccccc2C1)N1CCC(C(=O)N2CCOCC2)CC1 [Example 1AY, (S)-N-(3-(3,4-dihydroisoquinolin-2(1H)-yl)-2-hydroxypropyl)-4-(morpholine-4-carbonyl)piperidine-1-carboxamide]	0.311
O=C(OC[C@H](O)CN1CCc2ccccc2C1)N1CCC(C(=O)N2C3CCC2COC3)CC1 [Example 4Q, (R)-3-(3,4-dihydroisoquinolin-2(1H)-yl)-2-hydroxypropyl 4-(3-oxa-8-azabicyclo[3.2.1]octane-8-carbonyl)piperidine-1-carboxylate]	0.16
O=C(NCC(O)CN1CCc2ccccc2C1)N1CCCCc2ccccc21 (stereo not drawn) [Example 1J, N-[2-hydroxy-3-(1,2,3,4-tetrahydroisoquinolin-2-yl)propyl]-2,3,4,5-tetrahydro-1H-1-benzazepine-1-carboxamide]	0.32
O=C(OCC(O)CN1CCc2ccccc2C1)N1CCCC1 (stereo not drawn) [Example 3C, 2-hydroxy-3-(1,2,3,4-tetrahydroisoquinolin-2-yl)propyl pyrrolidine-1-carboxylate]	9.56
O=C(NCC(O)CN1CCc2ccccc2C1)N1CCC(c2ccccc2)C1 (stereo not drawn) [Example 1A, N-(3-(3,4-dihydroisoquinolin-2(1H)-yl)-2-hydroxypropyl)-3-phenylpyrrolidine-1-carboxamide]	0.29
O=C(NC[C@H](O)CN1CCc2ccccc2C1)N1CCCSC(c2ccccc2)C1 (stereo partly drawn) [Example 1BN, N-((S)-3-(3,4-dihydroisoquinolin-2(1H)-yl)-2-hydroxypropyl)-2-phenyl-1,4-thiazepane-4-carboxamide]	0.104
O=C(NC[C@H](O)CN1CCc2ccccc2C1)N1CCCC(c2cnccn2)C1 (stereo partly drawn) [Example 1BS, N-((S)-3-(3,4-dihydroisoquinolin-2(1H)-yl)-2-hydroxypropyl)-3-(pyrazin-2-yl)piperidine-1-carboxamide]	0.237

Other lines, results leading:

IC50 [µM]	SMILES
0.008	O=C(OC[C@H](O)CN1CCc2ccccc2C1)N1CCc2ccccc2C1 [Example 4G, (R)-3-(3,4-dihydroisoquinolin-2(1H)-yl)-2-hydroxypropyl 3,4-dihydroisoquinoline-2(1H)-carboxylate]
0.225	O=C(OC[C@H](O)CN1CCc2ccccc2C1)N1CCC(C(=O)N2CCOCC2)CC1 [Example 4P, (R)-3-(3,4-dihydroisoquinolin-2(1H)-yl)-2-hydroxypropyl 4-(morpholine-4-carbonyl)piperidine-1-carboxylate]
0.223	O=C(OCC(O)CN1CCc2ccsc2C1)N1CCCC(c2ccccc2)C1 (stereo not drawn) [Example 4AD, 3-(4,7-dihydrothieno[2,3-c]pyridin-6(5H)-yl)-2-hydroxypropyl 3-phenylpiperidine-1-carboxylate]
0.477	O=C(OCC(O)CN1CCc2ccccc2C1)N1CCSCC1 (stereo not drawn) [Example 4A, 3-(3,4-dihydroisoquinolin-2(1H)-yl)-2-hydroxypropyl thiomorpholine-4-carboxylate]
0.019	O=C(OC[C@H](O)CN1CCc2ccccc2C1)N1CCC(c2ccccc2)C1 (stereo partly drawn) [Example 4E, (R)-3-(3,4-dihydroisoquinolin-2(1H)-yl)-2-hydroxypropyl 3-phenylpyrrolidine-1-carboxylate]
0.075	O=C(OCC(O)CN1CCc2ccccc2C1)N1CCC(C(=O)N2CCOCC2)CC1 (stereo not drawn) [Example 4B, 3-(3,4-dihydroisoquinolin-2(1H)-yl)-2-hydroxypropyl 4-(morpholine-4-carbonyl)piperidine-1-carboxylate]
0.374	O=C(OCC(O)CN1CCc2sccc2C1)N1CCCC(c2ccccc2)C1 (stereo not drawn) [Example 4AC, 3-(6,7-dihydrothieno[3,2-c]pyridin-5(4H)-yl)-2-hydroxypropyl 3-phenylpiperidine-1-carboxylate]
2.71	CN(C)C(=O)C1CCN(C(=O)OC[C@H](O)CN2CCc3ccccc3C2)CC1 [Example 4O, (R)-3-(3,4-dihydroisoquinolin-2(1H)-yl)-2-hydroxypropyl 4-(dimethylcarbamoyl)piperidine-1-carboxylate]
0.041	O=C(OCC(O)CN1CCc2sccc2C1)N1CCC(c2ccccc2)C1 (stereo not drawn) [Example 4AE, 3-(6,7-dihydrothieno[3,2-c]pyridin-5(4H)-yl)-2-hydroxypropyl 3-phenylpyrrolidine-1-carboxylate]
10.8	COC(=O)N1CCCN(C(=O)OCC(O)CN2CCc3ccccc3C2)CC1 (stereo not drawn) [Example 4W, 1-(3-(3,4-dihydroisoquinolin-2(1H)-yl)-2-hydroxypropyl) 4-methyl 1,4-diazepane-1,4-dicarboxylate]
0.539	O=C(OC[C@@H](O)CN1CCc2ccccc2C1)N1CCc2ccccc2C1 [Example 4H, (S)-3-(3,4-dihydroisoquinolin-2(1H)-yl)-2-hydroxypropyl 3,4-dihydroisoquinoline-2(1H)-carboxylate]
1.01	O=C(OCC(O)CN1CCc2ccsc2C1)N1CCc2ccccc2C1 (stereo not drawn) [Example 4AB, 3-(4,7-dihydrothieno[2,3-c]pyridin-6(5H)-yl)-2-hydroxypropyl 3,4-dihydroisoquinoline-2(1H)-carboxylate]
1.7	O=C(NCCCN1CCc2ccccc2C1)N1CCCC(c2ccccc2)C1 (stereo not drawn) [Example 6B, N-(3-(3,4-dihydroisoquinolin-2(1H)-yl)propyl)-3-phenylpiperidine-1-carboxamide]
0.02	O=C(OC[C@H](O)CN1CCc2ccccc2C1)N1CC[C@@H](c2ccccc2)C1 [Example 4K, (R)-3-(3,4-dihydroisoquinolin-2(1H)-yl)-2-hydroxypropyl (S)-3-phenylpyrrolidine-1-carboxylate]
